Earlier results, collected in patent publication US20030003013A1, “Disinfectant composition and method for disinfecting and/or sterilising a dental unit” ([…].p.A., priority 2001, published 2003).

Tested on: bacteria and spores on a surface / water line of a dental unit

## O=CCCCC=O [glutaraldehyde]
glutaraldehyde
  contact time to reach the sporicidal level required to achieve sterility: five
Glutaraldehyde left in contact with a surface before flushing out
  contact time for high-level disinfection: twenty to thirty
Glutaraldehyde left in contact with the surface before flushing out
  contact time to disinfect a surface: approximately five
